According to patent US20240293430A1, “WITHAFERIN A AND IMMUNE CHECKPOINT BLOCKER COMBINATION THERAPIES” (University of South Florida, priority 2023, published 2024):

Test system: PARP, BCL-XL, CHOP, p-eIF-2 in NSCLC cell lines
Test: Western blot of apoptosis and ER stress markers
Type: cell-based, mouse (LLC), human (H1650)
Procedure: FIGS. 1A-lE depict that WFA induces ER stress-mediated apoptosis in NSCLC cell lines. (FIG. 1A) NSCLC cells were plated on 96-well plates and treated with different concentrations of WFA ([…]) in triplicates. Forty-eight hours post-treatment, cell viability was determined using Cell Titer-Glo assay. Luminescence values were normalized to control untreated cells and IC50 values are represented as the mean of two independent experiments ±SEM. (FIG. 1B) NSCLC cells were treated WFA for forty-eight hours, then collected to measure apoptotic cell death using Annexin V assay in LLC cells, H1650 cells, and A549 cells. Percentages of early (annexin*DAPI-) and late (annexin*DAPI+) apoptotic cells are represented as means of two separate experiments ±SEM and statistical significance was calculated using one-way ANOVA and a Fisher LSD post hoc test was used to compare the mean of each group to that of the control group. (FIGS. 1C-1D) WFA treated cells were collected in Trizol and total RNA was isolated to measure the levels of Bax (FIG. 1C) and Bcl2 (FIG. 1D) mRNA using qRT-PCR. PCR experiments were repeated at least twice, and one representative experiment is shown as mean±SEM of the technical replicates. (FIG. 1E) Western blot of ER stress markers p-eIF-2 and CHOP was performed using total lysates of WFA-treated LLC cells. The quantification of western blot band density was performed using Image J software v.1.54d and normalized to housekeeping control protein in LLC cells (0-actin). […] Data were obtained from two independent experiments.
FIGS. 7A-7I depict qRT-PCR analysis of the change in expression of pro-apoptotic and anti-apoptotic induced by WFA treatment. WFA increased the mRNA levels of proapoptotic protein Bak-1 in (FIG. 7A) LLC cells and BAD in (FIG. 7C) H1650 cells. […]
Total protein was isolated using Radioimmunoprecipitation Assay (RIPA) buffer (Thermo Fisher Scientific, Waltham, MA, USA) and sonication of cell pellets using Branson digital sonifier 450. […] Then, protein levels were quantified using a Pierce Coomassie Protein assay kit (Thermo Fisher Scientific, Waltham, MA, USA) according to the manufacturer's instruction and the absorbance values at 595 nm were measured using a plate reader (Bio Tek, Winooski, VT, USA) and used to calculate protein concentrations. […] Protein bands were detected using SuperSignal West Pico PLUS Chemiluminescent Substrate or West Femto Maximum Sensitivity Substrate (Thermo Fisher Scientific, Waltham, MA, USA) and imaged using the ChemiDoc XRS imaging system (Bio-Rad, Hercules, CA, USA) according to the manufacturer's instructions. Band density was measured using Image J software version 1.54d and was normalized to housekeeping proteins (0-actin or Vinculin). […]

CC1=C(CO)C(=O)O[C@@H]([C@@H](C)[C@H]2CC[C@H]3[C@@H]4C[C@H]5O[C@]56[C@@H](O)C=CC(=O)[C@]6(C)[C@H]4CC[C@]23C)C1 [WFA, Withaferin A]
levels of BCL-XL (H1650 cells): reduced
PARP cleavage (LLC and H1650 cells): increased
levels of C/EBP homologous protein (CHOP) (LLC cells): increases
phosphorylation of eIF-2 (LLC cells): increases
